{"source": "ChEMBL document CHEMBL1275491", "about": "“Role of plasma proteins in pharmacokinetics of micafungin, an antifungal antibiotic, in analbuminemic rats” (Antimicrob Agents Chemother, 2008)", "key": {"[1]": {"assay": "Systemic clearance in analbuminemic Nagase rat plasma at 1 mg/kg, iv administered as single dose by high-performance liquid chromatography", "format": "ADME, organism-based", "set-up": "dose 1 mg/kg, route intravenous"}, "Rattus norvegicus [2]": {"test_system": "Rattus norvegicus", "assay": "Plasma protein binding in Sprague-Dawley rat at 1 mg/kg, iv administered as single dose by high-performance liquid chromatography", "format": "ADME, organism-based", "set-up": "dose 1 mg/kg, route intravenous", "details": "in vivo"}, "[3]": {"assay": "Volume of distribution at steady state in analbuminemic Nagase rat plasma at 1 mg/kg, iv administered as single dose by high-performance liquid chromatography", "format": "ADME, organism-based", "set-up": "dose 1 mg/kg, route intravenous", "details": "read-out: Vdss"}, "Albumin": {"target": "Albumin (Homo sapiens, UniProt P02768)", "sequence (P02768 whole entry)": "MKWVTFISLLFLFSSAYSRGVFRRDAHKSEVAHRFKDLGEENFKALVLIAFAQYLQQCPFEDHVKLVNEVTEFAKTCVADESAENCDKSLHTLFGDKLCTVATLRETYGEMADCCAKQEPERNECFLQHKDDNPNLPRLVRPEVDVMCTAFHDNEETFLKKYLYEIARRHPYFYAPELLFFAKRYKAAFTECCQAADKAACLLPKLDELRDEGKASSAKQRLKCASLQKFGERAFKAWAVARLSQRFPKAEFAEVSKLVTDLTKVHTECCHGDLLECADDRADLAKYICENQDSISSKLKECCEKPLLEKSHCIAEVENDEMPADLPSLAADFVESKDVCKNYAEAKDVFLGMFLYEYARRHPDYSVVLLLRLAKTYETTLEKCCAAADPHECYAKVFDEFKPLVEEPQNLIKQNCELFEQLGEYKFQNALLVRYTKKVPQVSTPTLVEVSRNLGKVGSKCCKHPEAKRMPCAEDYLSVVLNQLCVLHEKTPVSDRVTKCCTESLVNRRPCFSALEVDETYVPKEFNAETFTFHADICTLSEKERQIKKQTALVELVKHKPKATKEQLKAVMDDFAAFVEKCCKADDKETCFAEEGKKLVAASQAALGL", "assay": "Binding affinity to human serum albumin in cell-free system"}, "[4]": {"assay": "Systemic clearance in Sprague-Dawley rat plasma at 1 mg/kg, iv administered as single dose by high-performance liquid chromatography", "format": "ADME, organism-based", "set-up": "dose 1 mg/kg, route intravenous"}, "[5]": {"assay": "Volume of distribution at steady state in Sprague-Dawley rat plasma at 1 mg/kg, iv administered as single dose by high-performance liquid chromatography", "format": "ADME, organism-based", "set-up": "dose 1 mg/kg, route intravenous", "details": "read-out: Vdss"}, "Rattus norvegicus [6]": {"test_system": "Rattus norvegicus", "assay": "Plasma protein binding in analbuminemic Nagase rat at 1 mg/kg, iv administered as single dose by high-performance liquid chromatography", "format": "ADME, organism-based", "set-up": "dose 1 mg/kg, route intravenous", "details": "in vivo"}, "Rattus norvegicus [7]": {"test_system": "Rattus norvegicus", "assay": "Binding affinity to HDL in rat plasma at 1 mg/kg, iv administered as single dose", "format": "ADME, organism-based", "set-up": "dose 1 mg/kg, route intravenous", "details": "in vivo"}, "Rattus norvegicus [8]": {"test_system": "Rattus norvegicus", "assay": "Binding affinity to gamma globulin in rat plasma at 1 mg/kg, iv administered as single dose", "format": "functional"}}, "note": "Starred links: 1 amine or outer side, 2 acyl side, 3 side chain; linkers in the order of their positions; H or OH if unused. Positions of bridges follow the written chain, without caps; N, C: chain ends. Non-standard residues stand in square brackets, D forms with d. Residues, ends and D or L forms follow the SMILES beside them. *: point of attachment. hTyr(3S-OH,4S-OH,3'-OSO3H) = N[C@H](C(=O)O)[C@H](O)[C@@H](O)c1ccc(O)c(OS(=O)(=O)O)c1; Orn(4R-OH,5R-OH) = O=C([C@H](C[C@@H](O)[C@@H](O)N[*:3])N[*:1])[*:2]; Pro(3S-OH,4S-Me) = C[C@H]1CN[C@H](C(=O)O)[C@H]1O; X1 = CCCCCOc1ccc(-c2cc(-c3ccc(C(=O)*)cc3)no2)cc1; Gln(3R-OH) = NC(=O)C[C@@H](O)[C@H](N)C(=O)O; Hyp = O=C(O)[C@@H]1C[C@@H](O)CN1", "data": [{"molecule": "CCCCCOc1ccc(-c2cc(-c3ccc(C(=O)N[C@H]4C[C@@H](O)[C@@H](O)NC(=O)[C@@H]5[C@@H](O)[C@@H](C)CN5C(=O)[C@H]([C@H](O)CC(N)=O)NC(=O)[C@H]([C@H](O)[C@@H](O)c5ccc(O)c(OS(=O)(=O)O)c5)NC(=O)[C@@H]5C[C@@H](O)CN5C(=O)[C@H]([C@@H](C)O)NC4=O)cc3)no2)cc1", "note": "[MICAFUNGIN] (X1-[Orn(4R-OH,5R-OH)]T[Hyp][hTyr(3S-OH,4S-OH,3'-OSO3H)][Gln(3R-OH)][Pro(3S-OH,4S-Me)]; lactam 1-C)", "values": [{"measurement": "clearance", "setting": "[1]", "value": 1.2, "unit": "mL/min/kg"}, {"measurement": "Activity", "setting": "Rattus norvegicus [2]", "value": 99.7, "unit": "%"}, {"measurement": "Vd", "setting": "[3]", "value": 0.52, "unit": "L/kg"}, {"measurement": "Activity", "setting": "Albumin", "value": 99.7, "unit": "%"}, {"measurement": "clearance", "setting": "[4]", "value": 1.15, "unit": "mL/min/kg"}, {"measurement": "Vd", "setting": "[5]", "value": 0.54, "unit": "L/kg"}, {"measurement": "Activity", "setting": "Rattus norvegicus [6]", "value": 99.8, "unit": "%"}, {"measurement": "Activity", "setting": "Rattus norvegicus [7]", "value": 97.4, "unit": "%"}, {"measurement": "Activity", "setting": "Rattus norvegicus [8]", "value": 35.1, "unit": "%"}]}]}
